Laboratory results published in patent publication US20120022261A1, “Colorant Compositions Containing an Oxonol Dye” (priority 2005, published 2012).

Key:
[1] = Solubility in organic solvents (EtOH, MEK); type: physicochemical; settings: for Solubility (g/l) EtOH: solvent EtOH; for Solubility (g/l) MEK: solvent MEK (methylethyl ketone)
[2] = 50° C. test (storage at 50° C. over 18 hours in a hot-air cabinet); type: physicochemical; design: key: A positive test result indicates that the product still exists in a solid and powdery state after the heat treatment; If the product undergoes a sintering process and/or starts to melt at this temperature, the test result is classified as negative; settings: solid product stored at 50° C. for 18 hours in a hot-air cabinet
Experimental: The 50° C. test involves storing the product to be tested at 50° C. over a period of 18 hours in a hot-air cabinet. […] If the product undergoes a sintering process and/or starts to melt at this temperature, the test result is classified as negative.

CC1=C(C#N)C(=O)N(CC(C)C)C(=O)C1=CC=Cc1c(C)c(C#N)c(=O)n(CC(C)C)c1[O-].CCCC[N+](CCCC)(CCCC)CCCC
Solubility (g/l) EtOH [1]: 4 g/L | Solubility (g/l) MEK [1]: 56.2 g/L | 50° C. Test [2]: positive

CCCC[N+](CCCC)(CCCC)CCCC.CCN1C(=O)C(=CC=Cc2c(C)c(C#N)c(=O)n(CC)c2[O-])C(C)=C(C#N)C1=O [ethyl, ethyl, tetrabutyl-ammonium]
Solubility (g/l) EtOH [1]: 5.6 g/L | Solubility (g/l) MEK [1]: 63.2 g/L | 50° C. Test [2]: positive

CCCC[N+](CCCC)(CCCC)CCCC.CCCCn1c([O-])c(C=CC=C2C(=O)N(CC)C(=O)C(C#N)=C2C)c(C)c(C#N)c1=O [ethyl, n-butyl, tetrabutyl-ammonium]
Solubility (g/l) EtOH [1]: 14.3 g/L | Solubility (g/l) MEK [1]: 41.4 g/L | 50° C. Test [2]: positive

CC1=C(C#N)C(=O)N(C(C)C)C(=O)C1=CC=Cc1c(C)c(C#N)c(=O)n(C(C)C)c1[O-].CCCC[N+](CCCC)(CCCC)CCCC [i-propyl, i-propyl, tetrabutyl-ammonium]
50° C. Test [2]: positive

CCCCN1C(=O)C(=CC=Cc2c(C)c(C#N)c(=O)n(CCCC)c2[O-])C(C)=C(C#N)C1=O.CCCC[N+](CCCC)(CCCC)CCCC [n-butyl, n-butyl, tetrabutyl-ammonium]
Solubility (g/l) EtOH [1]: 35.5 g/L | Solubility (g/l) MEK [1]: 98 g/L | 50° C. Test [2]: positive

CCCCCN1C(=O)C(=CC=Cc2c(C)c(C#N)c(=O)n(CCCCC)c2[O-])C(C)=C(C#N)C1=O.CCCC[N+](CCCC)(CCCC)CCCC [n-pentyl, n-pentyl, tetrabutyl-ammonium]
Solubility (g/l) EtOH [1]: 50 g/L | Solubility (g/l) MEK [1]: 380 g/L | 50° C. Test [2]: positive

CCCC[N+](CCCC)(CCCC)CCCC.CCCN1C(=O)C(=CC=Cc2c(C)c(C#N)c(=O)n(CCC)c2[O-])C(C)=C(C#N)C1=O [n-propyl, n-propyl, tetrabutyl-ammonium]
Solubility (g/l) EtOH [1]: 14 g/L | Solubility (g/l) MEK [1]: 69 g/L | 50° C. Test [2]: positive

CCCC[N+](CCCC)(CCCC)CCCC.COCCN1C(=O)C(=CC=Cc2c(C)c(C#N)c(=O)n(CCOC)c2[O-])C(C)=C(C#N)C1=O [reference compound]
50° C. Test [2]: negative

CCCC[N+](CCCC)(CCCC)CCCC.CCn1c([O-])c(C=CC=C2C(=O)N(CCCOC(C)C)C(=O)C(C#N)=C2C)c(C)c(C#N)c1=O [reference compound]
Solubility (g/l) EtOH [1]: 146 g/L | Solubility (g/l) MEK [1]: 231 g/L | 50° C. Test [2]: negative

CCCCC[N+](CCCCC)(CCCCC)CCCCC.CCn1c([O-])c(C=CC=C2C(=O)N(CCCOC(C)C)C(=O)C(C#N)=C2C)c(C)c(C#N)c1=O [reference compound]
Solubility (g/l) EtOH [1]: 45 g/L | Solubility (g/l) MEK [1]: 32 g/L | 50° C. Test [2]: negative

CC1=C(C#N)C(=O)N(CCCOC(C)C)C(=O)C1=CC=Cc1c(C)c(C#N)c(=O)n(C)c1[O-].CCCC[N+](CCCC)(CCCC)CCCC [reference compound]
Solubility (g/l) EtOH [1]: 21.3 g/L | Solubility (g/l) MEK [1]: 28.5 g/L | 50° C. Test [2]: negative

CCCC[N+](CCCC)(CCCC)CCCC.CCCCn1c([O-])c(C=CC=C2C(=O)N(CCCOC(C)C)C(=O)C(C#N)=C2C)c(C)c(C#N)c1=O [reference compound]
Solubility (g/l) EtOH [1]: 197 g/L | Solubility (g/l) MEK [1]: 339 g/L | 50° C. Test [2]: negative
